# Experimental data reported in PubChem BioAssay (NCI).
# Where “and” joins values, the source holds several entries; their conditions need not be identical. Equal values may be shown once.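 Exposure lasted 48 hours, with cells grown in 96-well plates and compounds tested at five concentrations. GI50: concentration for 50% inhibition of growth. At the TGI there is no net growth.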
# How the values were obtained:
# Experiment in all cases: growth of human tumour cells (NCI), 48 h
# HCT-15 colon = test system: HCT-15 colon
# SF-295 CNS = test system: SF-295 CNS
# SF-539 CNS = test system: SF-539 CNS
# SK-MEL-2 melanoma = test system: SK-MEL-2 melanoma
# SK-MEL-28 melanoma = test system: SK-MEL-28 melanoma
# TK-10 renal = test system: TK-10 renal
# U251 CNS = test system: U251 CNS
# UACC-62 melanoma = test system: UACC-62 melanoma
# MCF7 breast = test system: MCF7 breast
# MOLT-4 leukemia = test system: MOLT-4 leukemia
Compound,TGI (HCT-15 colon) [µM],TGI (SF-295 CNS),TGI (SF-539 CNS),TGI (SK-MEL-2 melanoma),TGI (SK-MEL-28 melanoma),TGI (TK-10 renal),TGI (U251 CNS) [µM],TGI (UACC-62 melanoma),GI50 (MCF7 breast),TGI (MCF7 breast),GI50 (MOLT-4 leukemia) [µM],TGI (MOLT-4 leukemia) [µM],GI50 (SF-539 CNS),GI50 (SK-MEL-2 melanoma),GI50 (SK-MEL-28 melanoma),GI50 (TK-10 renal),GI50 (U251 CNS),GI50 (UACC-62 melanoma),GI50 (HCT-15 colon),GI50 (SF-295 CNS)
Nc1nc(=S)c2c(ncn2CCO)[nH]1,> 100,> 100 µM,> 100 µM,> 100 µM,> 100 µM,> 100 µM,> 100,> 100 µM,–,–,–,–,–,–,–,–,–,–,–,–
COc1ccccc1CNCCN1C(=O)c2ccc3c4c(ccc(c24)C1=O)C(=O)N(CCNCc1ccccc1OC)C3=O,–,–,1.06 µM,2.24 µM,2.87 µM,0.735 µM,0.505,3.39 µM,0.198 µM,0.492 µM,0.252,0.65,0.553 µM,0.712 µM,1.46 µM,0.263 µM,0.225 µM,1.77 µM,–,–
Cc1ccc(S(=O)(=O)NCCCCC(N)C(=O)O)cc1 (stereo not drawn),> 100,> 100 µM,> 100 µM,–,> 100 µM,–,> 100,> 100 µM,–,> 100 µM,–,> 100,–,–,–,–,–,–,–,–
O=[N+]([O-])c1ccc(-c2ccc(C3=Nn4c(CNc5ccccc5Cl)nnc4SC3)o2)cc1,> 100,> 100 µM,> 100 µM,> 100 µM,> 100 µM,> 100 µM,> 100,> 100 µM,–,–,–,> 100,–,–,–,–,–,–,–,–
CC1NOC(=O)C1N=Nc1ccc(Cl)cc1Cl (stereo not drawn),38.3,68.6 µM,> 100 µM,75 µM,> 100 µM,62.7 µM,38.5,> 100 µM,–,–,–,50.7,–,–,–,–,–,–,–,–
CC(=O)Nc1ccc(C2CC(c3ccc([N+](=O)[O-])cc3)=Nc3ccccc3S2=O)cc1 (stereo not drawn),50.2,93.2 µM,70.2 µM,> 100 µM,43.7 µM,64.7 µM,–,27.8 µM,–,–,–,32.8,–,–,–,–,–,–,–,–
N#CC1CC(c2ccccc2)Nc2cc(Cl)ccc2N1 (stereo not drawn),> 100,> 100 µM,> 100 µM,> 89.2 µM,> 100 µM,> 100 µM,> 100,> 100 µM,–,–,–,> 100,–,–,–,–,–,–,–,–
CCc1cccc(CC)c1NC(=O)/C(Cl)=C(/Cl)C(=O)O,37.3,> 100 µM,49.2 µM,> 100 µM,50.9 µM,50.2 µM,> 69.8,> 66.7 µM,–,–,–,> 86.9,–,–,–,–,–,–,–,–
CCOC(=O)C1=C(NC)OCC1=O,> 100,> 100 µM,> 100 µM,> 100 µM,> 100 µM,> 100 µM,> 100,> 100 µM,–,–,–,–,–,–,–,–,–,–,–,–
COc1cc2nnc3c4cccnc4[nH]c3c2cc1OC,–,50 µM and 6.92 µM,11.4 µM and 3.52 µM,50 µM and 37.9 µM,50 µM and > 100 µM,50 µM and 7.83 µM,–,12.5 µM and 9.65 µM,0.836 µM and 0.34 µM,10.9 µM and 2.82 µM,–,–,2.79 µM and 1.73 µM,13.8 µM and 11.3 µM,18.8 µM and 4.49 µM,10.3 µM and 2.38 µM,1.66 µM and 0.918 µM,2.9 µM and 2.49 µM,2.3 µM and 1.43 µM,9.72 µM and 2.43 µM
O=C1N[C@@H]2CCCC[C@@H]2C12CCCCC2,–,> 100 µM,> 100 µM,–,> 100 µM,> 100 µM,> 100,> 100 µM,–,–,–,> 100,–,–,–,–,–,–,–,–
COc1cc(/C=C2\NC(=O)C(Cc3cc(OC)c(OC)c(C)c3OC)N(C(C)=O)C2=O)c(OC)c(C)c1OC (stereo not drawn),–,> 100 µM,> 100 µM,> 100 µM,> 100 µM,> 100 µM,> 100,> 100 µM,–,–,–,> 100,–,–,–,–,–,–,–,–
ClCCOCCn1cnc2c(Cl)nc(Cl)nc21,18.9,29.3 µM,25.8 µM,–,20.1 µM,60.6 µM,24.7,27.2 µM,3.57 µM,21.4 µM,24.7,> 100,12.1 µM,–,7.09 µM,18.5 µM,12.3 µM,14 µM,4.89 µM,14 µM
O=C(NCCc1ccccc1)C1C(=O)C(=O)N(CCc2ccccc2)C1=O (stereo not drawn),> 100,> 100 µM,> 100 µM,> 100 µM,> 100 µM,> 100 µM,> 100,> 100 µM,–,–,–,> 100,–,–,–,–,–,–,–,–
Cc1ccccc1C(CCCO)C(=O)O (stereo not drawn),> 100,> 100 µM,> 100 µM,> 100 µM,> 100 µM,> 100 µM,> 100,> 100 µM,–,–,–,> 100,–,–,–,–,–,–,–,–
CCCC(=O)CC(C)C(=O)C(=O)NC12CC3CC(CC(C3)C1)C2 (stereo not drawn),> 100,> 100 µM,–,> 100 µM,> 100 µM,> 100 µM,> 100,–,–,–,–,> 100,–,–,–,–,–,–,–,–
